Results from ChEMBL document CHEMBL1201862, “PubChem BioAssay data set” (2004).
The source made the active and inactive calls.

Experiments:
[1] = target: Peroxisome proliferator-activated receptor gamma/Nuclear receptor coactivator 1 (Homo sapiens, UniProt P37231); assay: (§1) TR-FRET dose response biochemical High Throughput Screening assay for agonists of the steroid receptor coactivator 1 (SRC-1) recruitment by the peroxisome proliferator-activated receptor gamma (PPAR gamma): non-selective agonists. [Related pubchem assays (depositor defined):AID1300, AID1808, AID504735, AID631]; type: protein assay
[2] = target: Peroxisome proliferator-activated receptor gamma/Nuclear receptor coactivator 3 (Homo sapiens, UniProt P37231); assay: as §1, with “3 (SRC-3)” for “1 (SRC-1)”, “assays: 1301 (Confirmation screen.), 1048 (Primary screen.)]” for “assays (depositor defined):AID1300, AID1808, AID504735, AID631]”; type: functional
[3] = target: Peroxisome proliferator-activated receptor gamma/Nuclear receptor coactivator 2 (Homo sapiens, UniProt P37231); assay: TR-FRET dose response biochemical High Throughput Screening assay for agonists of the steroid receptor coactivator 2 (SRC-2) recruitment by the peroxisome proliferator-activated receptor gamma (PPAR gamma): non-selective agonists. [Related pubchem assays: 1297, 1032 ]; type: functional
[4] = target: Intestinal-type alkaline phosphatase (Homo sapiens, UniProt P09923); assay: activation of human intestinal alkaline phosphatase – biochemical, dose response (AID 488873); type: functional
[5] = target: T1, Alkaline phosphatase, tissue-nonspecific isozyme (Homo sapiens, UniProt P05186); assay: TNAP enzyme activators, dose response, selectivity assay for mouse IAP activator project, biochemical, TNAP isozyme, mouse IAP uHTS hits (AID 488880); type: functional
T1 sequence (P05186 whole entry): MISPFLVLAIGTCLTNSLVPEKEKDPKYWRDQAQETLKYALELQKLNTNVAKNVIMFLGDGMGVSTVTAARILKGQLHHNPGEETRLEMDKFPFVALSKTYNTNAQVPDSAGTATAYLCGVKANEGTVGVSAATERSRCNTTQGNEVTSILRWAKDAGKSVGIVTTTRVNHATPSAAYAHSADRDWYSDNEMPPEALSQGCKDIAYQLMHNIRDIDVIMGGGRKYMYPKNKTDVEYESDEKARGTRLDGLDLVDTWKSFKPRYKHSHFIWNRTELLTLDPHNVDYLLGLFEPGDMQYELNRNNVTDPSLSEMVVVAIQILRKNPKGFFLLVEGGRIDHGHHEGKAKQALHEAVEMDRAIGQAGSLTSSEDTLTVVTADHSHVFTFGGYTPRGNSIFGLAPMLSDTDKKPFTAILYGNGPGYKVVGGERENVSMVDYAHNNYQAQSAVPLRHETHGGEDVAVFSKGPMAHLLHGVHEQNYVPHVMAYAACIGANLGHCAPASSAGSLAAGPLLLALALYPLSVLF

[6] = target: Dual specificity tyrosine-phosphorylation-regulated kinase 1A (Rattus norvegicus, UniProt Q63470); type: biochemical, Homo sapiens
[7] = Counterscreen for IDE inhibitors: Luminescence-based cell-based high throughput dose response assay to identify compounds that are cytotoxic to HEK cells. [Related pubchem assays: 434962 (Primary screen (IDE inhibitors in singlicate)), 449730 (Counterscreen (Cytotoxicity in triplicate)), 435028 (Confirmation (IDE inhibitors in triplicate)) …; type: functional; details: HEK293
[8] = target: Intestinal-type alkaline phosphatase (Mus musculus, UniProt P24822); assay: mouse intestinal alkaline phosphatase activators, dose response, biochemical, luminescence, uHTS hits (AID 488783); type: functional
Insulin-degrading enzyme = target: T2, Insulin-degrading enzyme (Homo sapiens, UniProt P14735); assay: Dose Response: Fluorescence polarization-based cell-based high throughput dose response assay for inhibitors of insulin-degrading enzyme (IDE). [Related pubchem assays: 434962 (Primary screen (IDE inhibitors in singlicate)), 449730 (Counterscreen (Cytotoxicity in triplicate)), 435028 (Confirmation (IDE inhibitors in triplicate)), 434984 (Summary …; type: functional
T2 sequence (P14735 whole entry): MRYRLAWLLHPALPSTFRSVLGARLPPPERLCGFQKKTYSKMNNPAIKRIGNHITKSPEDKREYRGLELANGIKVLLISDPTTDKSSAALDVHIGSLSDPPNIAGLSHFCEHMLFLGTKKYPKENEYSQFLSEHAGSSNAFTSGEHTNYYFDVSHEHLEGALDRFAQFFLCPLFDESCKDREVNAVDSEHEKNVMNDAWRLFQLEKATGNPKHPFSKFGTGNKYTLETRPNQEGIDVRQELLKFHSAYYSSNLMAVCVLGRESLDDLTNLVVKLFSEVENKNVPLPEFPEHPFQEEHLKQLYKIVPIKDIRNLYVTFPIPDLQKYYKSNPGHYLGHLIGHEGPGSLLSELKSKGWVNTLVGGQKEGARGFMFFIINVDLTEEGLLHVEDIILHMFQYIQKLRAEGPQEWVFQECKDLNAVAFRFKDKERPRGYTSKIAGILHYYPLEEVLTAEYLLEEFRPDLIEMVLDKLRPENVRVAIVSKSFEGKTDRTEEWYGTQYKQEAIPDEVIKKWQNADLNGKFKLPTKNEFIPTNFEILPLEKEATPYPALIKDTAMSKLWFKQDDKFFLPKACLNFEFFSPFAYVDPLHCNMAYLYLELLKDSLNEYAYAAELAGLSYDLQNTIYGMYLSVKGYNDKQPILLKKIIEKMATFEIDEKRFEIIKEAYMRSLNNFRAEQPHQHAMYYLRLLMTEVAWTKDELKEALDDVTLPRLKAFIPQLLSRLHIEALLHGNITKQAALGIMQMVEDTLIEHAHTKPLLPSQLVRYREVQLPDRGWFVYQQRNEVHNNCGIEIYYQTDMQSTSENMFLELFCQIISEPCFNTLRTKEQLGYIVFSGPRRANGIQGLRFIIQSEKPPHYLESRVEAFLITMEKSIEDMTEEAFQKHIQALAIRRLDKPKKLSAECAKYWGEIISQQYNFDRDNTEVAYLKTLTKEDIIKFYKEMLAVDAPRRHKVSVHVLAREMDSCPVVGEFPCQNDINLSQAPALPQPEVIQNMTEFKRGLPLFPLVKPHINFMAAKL

Hexokinase HKDC1 = target: T3, Hexokinase HKDC1 (Homo sapiens, UniProt Q2TB90); assay: HKDC1 hexokinase activators, dose response, biochemical, W721R variant (AID 504730); type: functional
T3 sequence (Q2TB90 whole entry): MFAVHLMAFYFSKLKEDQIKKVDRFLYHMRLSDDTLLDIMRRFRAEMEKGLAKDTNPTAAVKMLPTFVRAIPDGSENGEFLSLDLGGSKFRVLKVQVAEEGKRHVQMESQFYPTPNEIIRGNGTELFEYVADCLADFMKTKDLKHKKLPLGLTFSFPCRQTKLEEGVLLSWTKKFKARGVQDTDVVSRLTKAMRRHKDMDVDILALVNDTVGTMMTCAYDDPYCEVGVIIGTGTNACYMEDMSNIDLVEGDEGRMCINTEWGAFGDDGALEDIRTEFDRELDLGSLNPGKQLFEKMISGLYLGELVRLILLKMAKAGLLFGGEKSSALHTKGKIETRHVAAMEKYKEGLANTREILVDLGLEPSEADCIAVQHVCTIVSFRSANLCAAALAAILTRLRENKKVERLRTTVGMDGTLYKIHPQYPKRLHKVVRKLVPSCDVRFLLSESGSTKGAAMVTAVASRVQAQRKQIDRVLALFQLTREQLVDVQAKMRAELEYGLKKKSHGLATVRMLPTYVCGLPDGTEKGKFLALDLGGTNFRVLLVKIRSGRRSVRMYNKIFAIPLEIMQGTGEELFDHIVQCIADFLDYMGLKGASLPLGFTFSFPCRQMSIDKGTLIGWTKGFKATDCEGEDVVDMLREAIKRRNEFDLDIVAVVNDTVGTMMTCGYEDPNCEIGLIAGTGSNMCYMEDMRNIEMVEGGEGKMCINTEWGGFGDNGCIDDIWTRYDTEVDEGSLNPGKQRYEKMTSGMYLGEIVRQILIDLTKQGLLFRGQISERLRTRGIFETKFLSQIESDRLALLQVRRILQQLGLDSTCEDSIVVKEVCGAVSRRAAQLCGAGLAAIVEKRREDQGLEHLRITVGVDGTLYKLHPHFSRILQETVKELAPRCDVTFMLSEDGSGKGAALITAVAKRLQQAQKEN

Hexokinase-1 = target: T4, Hexokinase-1 (Homo sapiens, UniProt P19367); assay: hexokinase 1 activators, dose response, selectivity assay for HKDC1 activator project, biochemical (AID 504762); type: functional
T4 sequence (P19367 whole entry): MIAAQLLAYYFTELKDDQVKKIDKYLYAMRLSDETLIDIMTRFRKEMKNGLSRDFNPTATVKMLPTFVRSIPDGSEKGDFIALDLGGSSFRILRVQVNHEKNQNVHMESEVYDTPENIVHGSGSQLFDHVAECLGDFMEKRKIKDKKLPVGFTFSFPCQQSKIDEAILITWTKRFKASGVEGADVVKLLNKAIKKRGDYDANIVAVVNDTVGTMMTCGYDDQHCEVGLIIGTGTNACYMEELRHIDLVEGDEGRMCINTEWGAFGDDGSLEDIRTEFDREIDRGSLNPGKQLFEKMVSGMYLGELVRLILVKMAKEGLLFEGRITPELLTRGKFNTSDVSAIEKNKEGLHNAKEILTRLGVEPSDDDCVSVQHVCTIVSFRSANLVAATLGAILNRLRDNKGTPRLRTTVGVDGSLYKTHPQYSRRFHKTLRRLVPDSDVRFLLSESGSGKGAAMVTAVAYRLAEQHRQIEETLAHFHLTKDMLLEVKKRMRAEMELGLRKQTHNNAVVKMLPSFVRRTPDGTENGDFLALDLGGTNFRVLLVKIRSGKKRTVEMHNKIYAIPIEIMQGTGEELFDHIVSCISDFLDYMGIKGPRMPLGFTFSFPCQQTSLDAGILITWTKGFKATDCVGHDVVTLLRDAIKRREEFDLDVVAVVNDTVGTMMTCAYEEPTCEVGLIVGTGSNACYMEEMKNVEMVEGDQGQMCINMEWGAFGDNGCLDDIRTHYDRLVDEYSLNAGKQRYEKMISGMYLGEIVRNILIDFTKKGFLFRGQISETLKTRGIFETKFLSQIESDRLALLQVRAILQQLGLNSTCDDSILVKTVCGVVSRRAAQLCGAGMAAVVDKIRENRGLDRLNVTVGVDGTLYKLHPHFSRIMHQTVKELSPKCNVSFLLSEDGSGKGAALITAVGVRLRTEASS

H4 = assay: Luminescence Cell-Based Dose Response HTS to Identify Activators of 5'UTR Stem-Loop Driven Prion Protein mRNA Translation in H4 Neuroglioblastoma Cells. [Related pubchem assays: 1829 (Project Summary), 1814 (Primary HTS)]; type: functional; details: Homo sapiens
[9] = Luminescence Cell-Based Dose Retest to Confirm Inhibitors of Cancer Stem Cells. [Related pubchem assays (depositor defined):AID2717, AID2721]; type: functional; details: Homo sapiens
[10] = Luminescence Cell-Based Dose Response HTS to Identify Activators of Luciferase Translation or Activity in H4 […] Cells. [Related pubchem assays: 1829 (Project Summary), 1814 (Primary HTS)]; type: functional
[11] = Luminescence Cell-Based Dose Confirmation HTS to Identify Activators of 5'UTR Stem-Loop Driven Alpha-Synuclein mRNA Translation in H4 Neuroglioblastoma Cells. [Related pubchem assays: 1829 (Project Summary), 1814 (Primary HTS)]; type: functional
cells = type: functional
[12] = THP-1 cell cytotoxicity, dose response, cytotoxicity control for non-replicating M. tuberculosis project (AID 489025); type: functional
[13] = target: T5, Microphthalmia-associated transcription factor (Homo sapiens, UniProt O75030); assay: TRPM1 promoter luciferase signal decrease, dose response, MITF inhibitor project, cell-based, SK-MEL-5, cherry-picked, set 3 (AID 493073); type: functional
T5 sequence (O75030 whole entry): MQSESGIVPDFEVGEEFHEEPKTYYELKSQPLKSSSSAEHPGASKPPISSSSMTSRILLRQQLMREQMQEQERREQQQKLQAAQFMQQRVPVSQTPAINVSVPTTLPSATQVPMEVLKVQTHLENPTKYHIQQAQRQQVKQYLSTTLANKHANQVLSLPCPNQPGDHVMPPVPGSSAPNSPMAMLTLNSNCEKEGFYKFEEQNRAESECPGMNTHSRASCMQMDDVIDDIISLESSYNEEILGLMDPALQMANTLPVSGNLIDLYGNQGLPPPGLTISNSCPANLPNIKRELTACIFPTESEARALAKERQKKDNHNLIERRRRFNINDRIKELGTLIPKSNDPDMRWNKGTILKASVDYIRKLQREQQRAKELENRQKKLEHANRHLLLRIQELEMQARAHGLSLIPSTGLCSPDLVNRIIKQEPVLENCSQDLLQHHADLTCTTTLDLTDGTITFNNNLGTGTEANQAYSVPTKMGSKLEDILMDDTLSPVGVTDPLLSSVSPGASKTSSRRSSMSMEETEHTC

[14] = Vero E6 cell cytotoxicity, dose response, cytotoxicity control for non-replicating M. tuberculosis project, secondary assay (AID 492998); type: functional, VeroE6; details: Vero C1008
[15] = target: Heat shock protein HSP 90-alpha (Homo sapiens, UniProt P07900); type: functional, organism-based
Nonstructural protein 1 = Nonstructural protein 1 (Influenza A virus, UniProt Q194T2); type: functional, Influenza A virus (A/California/07/2009(H1N1))
Paired box protein Pax-8 = Paired box protein Pax-8 (Homo sapiens, UniProt Q06710); assay: inhibitors of PAX8-driven TPO luciferase reporter, dose response, RMG-I cells, cherry-pick (AID 687027); type: functional, cell-based;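 note: luciferase reporter driven by Pax8 target thyroperoxidase promoter measured by SteadyGlo luminescence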

Chain of Peroxisome proliferator-activated receptor gamma/Nuclear receptor coactivator 2 (P37231 whole entry): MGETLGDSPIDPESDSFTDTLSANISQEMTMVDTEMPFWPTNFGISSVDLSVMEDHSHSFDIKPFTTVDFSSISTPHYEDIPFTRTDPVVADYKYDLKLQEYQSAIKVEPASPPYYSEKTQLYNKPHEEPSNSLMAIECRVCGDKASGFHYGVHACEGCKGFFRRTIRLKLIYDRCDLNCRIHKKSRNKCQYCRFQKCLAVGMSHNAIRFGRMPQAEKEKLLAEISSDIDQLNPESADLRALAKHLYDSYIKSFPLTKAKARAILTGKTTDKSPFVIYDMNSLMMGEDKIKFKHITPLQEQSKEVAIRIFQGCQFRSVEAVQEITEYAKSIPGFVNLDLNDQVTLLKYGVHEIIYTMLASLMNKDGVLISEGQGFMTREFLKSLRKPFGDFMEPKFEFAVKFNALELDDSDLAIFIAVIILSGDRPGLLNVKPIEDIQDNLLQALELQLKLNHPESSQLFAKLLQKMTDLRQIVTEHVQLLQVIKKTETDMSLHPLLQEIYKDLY
Chain of Peroxisome proliferator-activated receptor gamma/Nuclear receptor coactivator 2 (Q15596 whole entry, further chain): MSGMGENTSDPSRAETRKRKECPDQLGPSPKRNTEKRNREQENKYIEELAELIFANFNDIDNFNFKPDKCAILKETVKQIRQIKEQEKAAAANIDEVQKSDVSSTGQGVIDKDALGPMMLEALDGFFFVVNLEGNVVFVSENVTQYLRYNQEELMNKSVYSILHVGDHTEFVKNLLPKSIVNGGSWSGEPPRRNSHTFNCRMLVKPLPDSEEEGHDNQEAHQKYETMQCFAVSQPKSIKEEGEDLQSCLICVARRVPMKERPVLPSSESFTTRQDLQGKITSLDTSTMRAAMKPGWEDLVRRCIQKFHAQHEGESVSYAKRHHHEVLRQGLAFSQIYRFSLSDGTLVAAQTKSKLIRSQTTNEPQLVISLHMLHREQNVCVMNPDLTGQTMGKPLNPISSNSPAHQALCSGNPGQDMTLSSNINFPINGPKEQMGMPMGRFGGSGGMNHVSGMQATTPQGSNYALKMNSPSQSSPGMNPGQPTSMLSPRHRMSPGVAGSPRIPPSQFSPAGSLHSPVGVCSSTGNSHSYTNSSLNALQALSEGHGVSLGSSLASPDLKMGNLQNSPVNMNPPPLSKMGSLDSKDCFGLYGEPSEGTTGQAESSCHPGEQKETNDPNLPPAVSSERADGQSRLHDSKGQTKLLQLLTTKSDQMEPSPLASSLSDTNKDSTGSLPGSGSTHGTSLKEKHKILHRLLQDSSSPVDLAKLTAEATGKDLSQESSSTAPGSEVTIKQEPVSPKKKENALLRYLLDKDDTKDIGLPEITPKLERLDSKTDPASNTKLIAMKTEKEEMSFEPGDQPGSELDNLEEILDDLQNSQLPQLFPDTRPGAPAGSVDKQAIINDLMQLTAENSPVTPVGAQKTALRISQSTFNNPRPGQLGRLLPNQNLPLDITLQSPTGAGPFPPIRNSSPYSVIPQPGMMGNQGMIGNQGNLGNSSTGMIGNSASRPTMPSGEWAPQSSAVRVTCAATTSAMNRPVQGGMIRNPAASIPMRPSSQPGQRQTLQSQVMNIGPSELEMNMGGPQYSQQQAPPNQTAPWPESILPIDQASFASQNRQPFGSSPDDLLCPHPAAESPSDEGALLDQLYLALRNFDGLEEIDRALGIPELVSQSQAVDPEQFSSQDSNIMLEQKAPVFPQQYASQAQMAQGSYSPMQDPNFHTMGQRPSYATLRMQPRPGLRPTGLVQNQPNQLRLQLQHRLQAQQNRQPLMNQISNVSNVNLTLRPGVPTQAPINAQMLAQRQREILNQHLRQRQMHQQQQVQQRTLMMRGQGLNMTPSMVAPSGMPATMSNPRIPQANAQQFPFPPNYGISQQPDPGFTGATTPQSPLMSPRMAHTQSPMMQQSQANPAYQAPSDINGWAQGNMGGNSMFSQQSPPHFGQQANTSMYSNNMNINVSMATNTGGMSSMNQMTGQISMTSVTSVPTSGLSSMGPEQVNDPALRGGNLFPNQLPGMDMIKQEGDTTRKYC
Chain of Peroxisome proliferator-activated receptor gamma/Nuclear receptor coactivator 1 (P37231 whole entry): as the sequence (P37231 whole entry) above
Chain of Peroxisome proliferator-activated receptor gamma/Nuclear receptor coactivator 1 (Q15788 whole entry, further chain): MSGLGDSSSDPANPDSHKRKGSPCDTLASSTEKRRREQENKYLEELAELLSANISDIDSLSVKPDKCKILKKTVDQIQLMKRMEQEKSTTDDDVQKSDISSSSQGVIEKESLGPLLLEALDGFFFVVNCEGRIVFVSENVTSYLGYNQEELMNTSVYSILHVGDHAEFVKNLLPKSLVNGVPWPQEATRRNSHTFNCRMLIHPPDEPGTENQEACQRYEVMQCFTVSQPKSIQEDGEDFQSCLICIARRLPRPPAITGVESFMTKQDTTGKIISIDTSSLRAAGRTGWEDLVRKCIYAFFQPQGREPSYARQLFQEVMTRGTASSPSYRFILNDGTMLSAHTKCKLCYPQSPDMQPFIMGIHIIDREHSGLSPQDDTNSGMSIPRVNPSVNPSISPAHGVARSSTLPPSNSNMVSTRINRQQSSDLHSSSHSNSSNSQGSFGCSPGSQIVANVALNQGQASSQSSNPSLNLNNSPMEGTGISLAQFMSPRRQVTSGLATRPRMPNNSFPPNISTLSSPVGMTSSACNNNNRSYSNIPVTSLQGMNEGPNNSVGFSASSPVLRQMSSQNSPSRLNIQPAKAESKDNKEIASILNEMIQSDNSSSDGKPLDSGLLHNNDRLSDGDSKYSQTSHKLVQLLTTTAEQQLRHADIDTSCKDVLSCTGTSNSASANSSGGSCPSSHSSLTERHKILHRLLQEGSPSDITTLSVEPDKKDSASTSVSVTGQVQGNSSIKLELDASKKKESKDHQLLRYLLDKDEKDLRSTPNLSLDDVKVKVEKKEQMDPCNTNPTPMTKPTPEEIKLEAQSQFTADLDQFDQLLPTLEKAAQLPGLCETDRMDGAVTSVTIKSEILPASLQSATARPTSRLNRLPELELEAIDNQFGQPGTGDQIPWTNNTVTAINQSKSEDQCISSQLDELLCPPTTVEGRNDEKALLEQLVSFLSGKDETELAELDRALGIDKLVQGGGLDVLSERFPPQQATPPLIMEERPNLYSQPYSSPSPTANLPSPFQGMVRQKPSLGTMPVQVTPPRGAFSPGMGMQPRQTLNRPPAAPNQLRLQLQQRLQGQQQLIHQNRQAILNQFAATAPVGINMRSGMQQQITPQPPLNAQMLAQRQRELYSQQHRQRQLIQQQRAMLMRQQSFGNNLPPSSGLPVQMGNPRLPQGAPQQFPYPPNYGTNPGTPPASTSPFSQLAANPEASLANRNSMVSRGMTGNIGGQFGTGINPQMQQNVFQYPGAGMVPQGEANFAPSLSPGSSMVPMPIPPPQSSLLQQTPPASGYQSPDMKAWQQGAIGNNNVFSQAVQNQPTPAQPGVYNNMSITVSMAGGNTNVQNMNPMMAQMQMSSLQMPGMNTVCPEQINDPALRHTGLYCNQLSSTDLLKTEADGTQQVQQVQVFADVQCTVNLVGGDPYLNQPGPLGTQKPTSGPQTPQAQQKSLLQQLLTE
Chain of Intestinal-type alkaline phosphatase (Mus musculus, UniProt P24822) (P24822 whole entry): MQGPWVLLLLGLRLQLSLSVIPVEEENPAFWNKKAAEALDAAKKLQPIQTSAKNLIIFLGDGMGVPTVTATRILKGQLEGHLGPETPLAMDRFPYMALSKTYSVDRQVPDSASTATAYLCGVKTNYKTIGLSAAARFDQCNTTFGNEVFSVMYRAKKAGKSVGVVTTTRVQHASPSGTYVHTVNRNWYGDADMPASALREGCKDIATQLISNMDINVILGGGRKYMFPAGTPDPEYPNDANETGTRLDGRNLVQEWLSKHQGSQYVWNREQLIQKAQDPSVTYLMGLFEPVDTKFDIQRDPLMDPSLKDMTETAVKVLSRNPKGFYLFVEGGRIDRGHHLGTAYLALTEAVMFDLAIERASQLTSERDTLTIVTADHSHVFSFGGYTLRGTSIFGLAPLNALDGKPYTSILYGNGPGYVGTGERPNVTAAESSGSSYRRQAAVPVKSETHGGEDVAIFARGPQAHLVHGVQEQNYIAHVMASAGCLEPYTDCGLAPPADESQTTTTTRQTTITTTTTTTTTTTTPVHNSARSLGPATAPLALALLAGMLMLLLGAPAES
Chain of Nonstructural protein 1 (Q194T2 whole entry): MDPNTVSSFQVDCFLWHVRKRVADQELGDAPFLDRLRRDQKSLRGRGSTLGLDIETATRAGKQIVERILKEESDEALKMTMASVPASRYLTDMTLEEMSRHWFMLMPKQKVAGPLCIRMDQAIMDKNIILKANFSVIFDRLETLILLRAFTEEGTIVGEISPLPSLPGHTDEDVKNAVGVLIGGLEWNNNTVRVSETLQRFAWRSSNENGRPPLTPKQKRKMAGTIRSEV

O=C(CSc1ccccc1)Nc1ccc(C(=O)Nc2ccc(O)cc2)cc1
EC50 [1]: 9.68 µM (active) | EC50 [2]: 58.3 µM (not active) | EC50 [3]: 8.24 µM (active)

CSC1=NSC2=NC(=O)/C(=C/c3coc4ccc(O)cc4c3=O)C(=N)N12
EC50 [4]: 24.9 µM (active) | EC50 [5]: 30.2 µM (active) | AC50 [6]: 7.62 µM (active) | IC50 [7]: > 55.7 µM (not active) | EC50 [8]: 20.8 µM (active) | IC50 (Insulin-degrading enzyme): > 6.21 µM (active)

Cc1ccc2oc(=O)c3cnn(CC(=O)N4CCc5ccccc5C4)c3c2c1
EC50 (Hexokinase HKDC1): 16 µM (active) | EC50 (Hexokinase-1): 36.7 µM (inactive)

O=C(Nc1cccc(S(=O)(=O)N2CCCCC2)c1)c1ccc([N+](=O)[O-])o1
EC50 (H4): > 120 µM (not active) | AC50 [9]: 2.44 µM (active) | EC50 [10]: > 120 µM (not active) | EC50 [11]: > 120 µM (not active) | IC50 (cells): 5.03 µM (active) | CC50 [12]: 8.73 µM (active) | AC50 [13]: 11.9 µM (active) | CC50 [14]: 4.29 µM (active)

CC(=NNC(=S)N1CCN(C2CCCCCC2)CC1)c1ccccn1
EC50 (Hexokinase HKDC1): 8.14 µM (active) | AC50 [15]: 3.35 µM (active) | IC50 (Nonstructural protein 1): 1.66 µM (active) | EC50 (Hexokinase-1): > 80 µM (inactive) | AC50 (Paired box protein Pax-8): < 0.26 µM (active)

Fc1cccc(CSc2ncnc3c2oc2ccccc23)c1
EC50 [1]: 24.2 µM (inactive) | EC50 [2]: 85.8 µM (not active) | EC50 [3]: 14.3 µM (not active)
